Consider five compounds from patent publication EP0558661B1, “POLYAZAMACROCYCLIC COMPOUNDS FOR COMPLEXATION OF METAL IONS” (BOARD OF REGENTS THE UNIVERSITY OF TEXAS SYSTEM, priority 1990, dated 1992).

A short description of series [1]: KD of the DOTEP calcium complex by 31P NMR and pH potentiometry. The class given is binding. The following applies: Ca(DOTEP); at pH 7.4. The protocol:
The ^31P spectrum shown in Figure 9 was obtained on a solution containing approximately 1 mM Ca^2+ and 3 mM DOTEP in an aqueous solution at physiological pH. Clearly, the ^31P resonances of the free and bound forms of DOTEP have distinct chemical shifts and neither overlaps with the ^31P resonances of metabolites normally observed in tissue.
The value of KD at pH 7.4 reported above was determined by ^31P NMR (measuring the free and bound integrals as a function of pH in solutions containing known amounts of [Ca^2+]total and [DOTEP]total) and by pH potentiometry.

A short description of series [2]: KD determination by 31P NMR (integration of free and metal bound resonances). The class given is binding. The protocol:
^1H NMR data was obtained on JEOL FX-200 NMR spectrometer using a 10 mm probe operating at room temperature. Studies on solutions of NOTPME and its complexes were performed on a General Electric GN-500 NMR spectrometer. A 10 mm broad band probe was tuned to 202.4 MHz for ^31P detection. Shifts for NOTPME and its complexes were measured using 85% H3PO4 as an external standard. Probe temperatures were accurate to ± 0.5°C.
Samples of NOTPME used for KD determinations by NMR consisted of 115 mM KCl, 20 mM NaCl and 10 mM HEPES buffered with Tris base at pH 7.4. Varying concentrations (typically 0.5 to 10 mM) of Mg^2+, Ca^2+ or Zn^2+ were added to the sample and the resulting ^31P NMR spectrum obtained. Resonance areas were determined by integration of peaks using the GE software.
The area of resonances corresponding to free and metal bound NOTPME were obtained by integration and their concentrations estimated.

The nature of series [3]: Protonation constants by potentiometric titration. The following applies: 0.1 m tetramethylammonium chloride. The class given is physicochemical. Here is the method: (§1) Potentiometric titrations were conducted at 25°C using a Corning Ion Analyzer (model 250) and a Metrohm Dorsimat automatic burette (Brinkman Instruments). […] Na3NOTPME was dissolved in 0.1 M tetramethylammonium chloride, the pH adjusted to low pH value with HCl and titrated with 0.098 M KOH. KOH was standardized by potentiometric titration against potassium hydrogen phthalate and stored under N2 atmosphere. The hydrogen ion activity coefficient and Kw were determined separately in these same salt solutions. Stability constants of Zn(NOTPME)^-, Mg(NOTPME)^-, and Ca(NOTPME)^- were determined by potentiometric titration of solutions containing 1:1 ratio of metal and ligand. In all of the titrations, samples were covered by a layer of cyclohexane to exclude CO2.
(§2) Protonation constants (KHiL) and stability constants (KML, and KMHL) are defined by the following equations: KHiL = [Hi L] / {[Hi-1 (L] {H)^+ ]) [formula] KML = [ML] / {[M] [L]) [formula] KMHL (= [MHL] / {[ML] [H)^+ ]} [formula] Protonation and stability constants were obtained from the potentiometric data using a simplex non-linear algorithm run on an IBM PC.
A representative potentiometric titration curve for NOTPME in 0.1 M tetramethylammonium chloride and 25°C is illustrated in Figure 2. […] The phosphorous shifts are very sensitive to protonation of the nitrogens in the polyaza ring, similar to that observed for the parent phosphonate NOTP [17]. The first two protonations (log K = 11.8, 3.65) result in ^31P shifts to low frequency which is consistent with protonation at two ring nitrogens. […] These differences in pK2 may reflect differences in the ability of the phosphonate versus the phosphonate monoester side chains to form internal hydrogen bonds with the protonated nitrogens.

Series [4] can be described thus: Stability constants by potentiometric titration. The class given is binding. The following applies: for log KML: potentiometry at 25°C, 1:1 metal and ligand, 0.1 M tetramethylammonium chloride. Here is the method:
as §1, §2

Another series deals with red blood cells. Kind of series: Red blood cell loading of NOTPME derivatives. The class given is cell-based. Particulars: during the time course of NMR measurements, after loading with the derivatives. Here is the method:
NOTPME derivatives used are the benzoyl and acetyl derivatives. Fresh whole blood was obtained in heparinized tubes and centrifuged at 3000g for 3 minutes to remove the buffy coat. Packed red blood cells are then washed three times in 5 mM phosphate buffered saline at pH 7.4. Red blood cells at 50% hematocrit were suspended in the NOTPME derivative containing loading medium. The loading medium contained 130 mM NaCl, 5 mM NOTPME derivative (benzoyl or acetyl derivative), 1 mM adenine, 10 mM glucose, and 10 mM HEPES at pH 7.4. Red cells in the above loading medium were incubated at 25°C for 1 hour. No lysis of red blood cells were observed during the loading procedure. After loading with NOTPME derivatives for one hour, the red cell suspension was centrifuged and the supernatant discarded. The red cells are washed twice with 5 mM phosphate buffered saline at pH 7.4 before suspension in an isotonic saline for NMR measurements. […] After NMR measurements the sample was centrifuged and the supernatant analyzed for any leakage of NOTPME. No leak of NOTPME was observed during the time course of NMR measurements. thus, it is clear that these NOTPME derivatives enter the red cells, get hydrolyzed to NOTPME and remain inside red cells.

A short description of series [5]: Solubility as observed on the isolated product. The class given is physicochemical. The protocol: 9.20 g of NOTPDE (14.15 mmol) was mixed with 2.50 g of NaOH in 9 ml H2O) and after 2 hours the entire reaction mixture was boiled until a clear solution was obtained (approximately 5 minutes). The solution was cooled to room temperature and was allowed to stand overnight. The crystals formed were filtered off from the viscous mother liquor using a pressure filter funnel with a coarse porosity grade filter disc. The crystals were washed once with cold absolute ethanol, three times with absolute ethanol-diethylether (1:1) mixture and finally with diethyl ether. The crystals of Na3NOTPME were dried in dry nitrogen stream at 25°C for 2 hours. Traces of H2O and ethanol were removed upon vacuum drying (10 mm Hg) NOTPME for 5 hours at 50°C. […] The yield of pure NOTPME was 40.8% (3.24 g, 5.77 mmol).
NOTPME trisodium salt (178.63 mg, 0.318 mmol) was dissolved in 4.0 ml anhydrous chloroform (freshly distilled from over P4O10) and 120 microliter acetyl chloride was added. The solution was stirred at room temperature for 24 hours in a tightly closed vessel. The solution was then evaporated under dry nitrogen atmosphere to a yellowish, very viscous oil. To the oil anhydrous ether was added and NOTPME-AC (precipitated as a sodium chloride adduct) was filtered off and dried at 35-40°C under dry nitrogen. NOTPME-AC (234.24 mg, 92.3% calculated on the basis of NOTPME-AC.3NaCl formula weight) is an extremely hygroscopic, water sensitive powder.
NOTPME trisodium salt (164.82 mg, 0.294 mmol) and benzoyl chloride (105 microliter, 0.883 mmol) were reacted in 4.0 ml anhydrous chloroform at room temperature for 24 hours. The rection mixture was worked up with identical method than was used in the synthesis of NOTPME-AC. The product NOTPME-B was get as a sodium chloride adduct (204.32 mg, 70.7% calculated on the basis of NOTPME-B.3NaCl formula weight). NOTPME-B is a very hygroscopic, water sensitive powder. It is soluble in water and chloroform and DMSO.

For the next series, the system named is RBCs. Nature of the series: Red blood cell loading of NOTPME and intracellular free Mg2+ by 31P NMR. The class given is cell-based, Human. The protocol:
Fresh whole blood was obtained placed in heparinized tubes and centrifuged at 3000 g for 6 min. to remove the buffy coat. RBCs were then washed three times in 5 mM phosphate buffered saline at pH 7.4. RBCs at 50% hematocrit were suspended in the loading medium containing 120 mM NaCl, 5 mM MgCl2, 10 mM HEPES pH 7.4, 10 mM glucose, and 10 mM NOTPME and incubated at 37°C for 12 hours. No lysis of RBCs were observed during the loading procedure. The RBCs were centrifuged and the supernatant discarded. The RBCs were washed twice with phosphate buffered saline at pH 7.4 before suspension in an isotonic medium.
Figure 6 illustrates one application of NOTPME to detect intracellular free Mg^2+ in RBCs. NOTPME loaded RBCs (Figure 6.b) were prepared by incubating RBCs at 37°C in a loading medium containing NOTPME in the presence of 5mM MgCl2 for 12 hours. NOTPME loading into RBCs was not observed in the absence of MgCl2 in the loading medium.
As in the in vitro studies, two resonances were observed corresponding to free and Mg^2+ bound NOTPME in RBCs. […] Since intracellular free Mg^2+ levels in RBCs normally range between 0.2 - 0.3 mM [12,19,20], the high concentration of intracellular free Mg^2+ observed in this experiment must have resulted from transport of Mg^2+ as a complex with NOTPME. Upon addition of the divalent cation ionophore A23187 to the suspension medium, an increase in intracellular free Mg^2+ concentration (to 1.90 mM) was observed (data not shown).

The conditions of series [6]: 0.1 m hcl.
Protocol: In this experiment, Gd(DOTEP)^- and Gd(DOTA)^- were dissolved in 0.1M HCl and their decomposition to free Gd^3+ and free ligand were followed by water relaxation measurements.

Read-outs that look alike come from different tables or passages of the source.

With `CCP(=O)(O)CN1CCN(CP(=O)(O)CC)CCN(CP(=O)(O)CC)CCN(CP(=O)(O)CC)CC1` [DOTEP], the Kd in series [1] was found to be 0.011 mM.
`CCOP(=O)(O)CN1CCN(CP(=O)(O)OCC)CCN(CP(=O)(O)OCC)CC1` [NOTPME, 1,4,7-Triazacyclononane-N,N',N"-tris(methylenephosphonatemonoethylester)]: the Kd in series [2] (Ca^2+ complex, 115 mM KCl, 20 mM NaCl, 10 mM HEPES, pH 7.4, read-out: KD (at 25°X)) was 50 mM; in series [2] (Ca^2+ complex, pH 7.4, read-out: KD (at 37°C)), 47.6 mM; in series [2] (Mg^2+ complex, 31P NMR, 115 mM KCl, 20 mM NaCl, 10 mM HEPES, pH 7.4, read-out: KD (at 25°X)), 5.77 mM; in series [2] (Mg^2+ complex, 31P NMR, pH 7.4, read-out: KD (at 37°C)) it was 4.66 mM; in series [4] (Zn^2+ complex, estimated from log KML = 15.4, the ligand pK values and the proton concentration at pH 7.4) it was 0.01 nM. Besides, in series [2] (at physiological pH values), the “higher affinity for Mg^2+ than for Ca^2+” value was found to be 10 fold. Moreover, the pKa is 11.8 in series [3] (25°C, read-out: pK1 (first protonation constant, log K1)); 3.65 in series [3] (25°C, read-out: pK2 (second protonation constant, log K2)); 1.4 in series [3] (25°C, read-out: pK3); < 1.4 in series [3] (protonations of the phosphonate ester oxygens). Also, the results for the “log KML” value in series [4] (Ca^2+) and in series [4] (Mg^2+) were 5.1 and 6.3, respectively. The “leakage of NOTPME into the supernatant” value in the series on red blood cells is given as “No leak”. In series [5], the solubility in chloroform result is listed as “fairly soluble”. Further, in series [5], the solubility in water result is recorded as “readily soluble”. Also, the “lysis of RBCs during the loading procedure” value with RBCs (10 mM NOTPME, 5 mM MgCl2, 37°C, 12 hours, 50% hematocrit) was “No lysis”. The “loading into RBCs” value in the series with RBCs (in the absence of MgCl2 in the loading medium) is given as “not observed”. For the same compound, the “loading into red blood cells” value with RBCs (in the presence of Mg^2+) is recorded as “readily loaded”.
On to `CCOP(=O)(CN1CCN(CP(=O)(OCC)OC(C)=O)CCN(CP(=O)(OCC)OC(C)=O)CC1)OC(C)=O` (centres unmarked) [NOTPME-AC, 1,4,7-triazacyclononane-N,N',N"-tris(methylenephosphonatemonoethylesteracetic acid anhydride)], for which, in series [5], the “solubility in DMSO” value was “readily soluble”, the solubility in chloroform entry is “readily soluble” and the solubility in water entry was “readily soluble”.
In the case of `CCOP(=O)(CN1CCN(CP(=O)(OCC)OC(=O)c2ccccc2)CCN(CP(=O)(OCC)OC(=O)c2ccccc2)CC1)OC(=O)c1ccccc1` (centres unmarked) [NOTPME-B], in series [5], the “solubility in DMSO” value was “soluble”, the solubility in chloroform entry is reported as “soluble” and the solubility in water result is listed as “soluble”.
As for Gd(DOTA)^-, the half-lives for decomposition result in series [6] is given as “approximately 110 hrs”.

By Kd is commonly meant the concentration at which binding is half-saturated.
